Assay results taken from patent publication US8754115B2, “Fungicidal pyrazoles” (E I du Pont de Nemours and Company, priority 2010, dated 2014).
Marks after values point to notes of the source that are not given here.

How the values were obtained:
Type in all cases: in vivo
Septoria tritici = test: Test D: preventive spray on wheat seedlings, visual disease rating (wheat leaf blotch)
Summary of the method: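 Wheat seedlings were sprayed to run-off with a 200 ppm suspension (equal to 800 g/ha), or 40 ppm where marked with an asterisk, and inoculated with Septoria tritici spores the next day. Plants were kept at 24 °C in saturated air for 48 h, then at 20 °C for 19 days. Disease control was rated visually from 0 to 100 relative to controls.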

[1] = system: Puccinia recondite f. sp. tritici; test: Test E1: curative spray on wheat seedlings after inoculation, visual disease rating (wheat leaf rust)
Source text: (§1) General protocol for preparing test suspensions for Tests A-F: the test compounds were first dissolved in acetone in an amount equal to 3% of the final volume and then suspended at the desired concentration (in ppm) in acetone and purified water (50/50 mix by volume) containing 250 ppm of the surfactant Trem® 014 (polyhydric alcohol esters). The resulting test suspensions were then used in Tests A-F. Spraying a 200 ppm test suspension to the point of run-off on the test plants was the equivalent of a rate of 800 g/ha. Unless otherwise indicated, the rating values indicate a 200 ppm test suspension was used. (An asterisk “*” next to the rating value indicates a 40 ppm test suspension was used.)
Wheat seedlings were inoculated with a spore suspension of Puccinia recondite f. sp. tritici (the causal agent of wheat leaf rust) and incubated in a saturated atmosphere at 20° C. for 24 h, and then moved to a growth chamber at 20° C. for 2 days. After 2 days, the test suspension was sprayed to the point of run-off on the wheat seedlings, and then the seedlings were moved back to the growth chamber at 20° C. for 6 days. Upon removal, visual disease ratings were made.
(§2) Results for Tests A-F are given in Table A. In the Table, a rating of 100 indicates 100% disease control and a rating of 0 indicates no disease control (relative to the controls). A dash (-) indicates no test results. An asterisk “*” next to the rating value indicates a 40 ppm test suspension was used.

[2] = system: Blumeria graminis f. sp. tritici; test: Test F: preventive spray on wheat seedlings, visual disease rating (wheat powdery mildew); conditions: for Test F rating (% disease control): no asterisk: standard test suspension, not 40 ppm
Summary of the method: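 Compound in acetone/water (50/50) with 250 ppm surfactant, sprayed to run-off on wheat seedlings at 200 ppm (≈800 g/ha) or, where marked, 40 ppm. Seedlings dusted with spores the next day, kept 8 days at 20° C., then rated visually as % disease control versus untreated plants.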

Septoria nodorum = test: Test C: preventive spray on wheat seedlings, visual disease rating (Septoria glume blotch); conditions: for Test C rating (% disease control): no asterisk: standard test suspension, not 40 ppm
Summary of the method: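 Wheat seedlings were sprayed to run-off with 200 ppm suspension (40 ppm where marked; 200 ppm ≈ 800 g/ha) in acetone/water with 250 ppm Trem 014, then inoculated next day with Septoria nodorum spores. Incubation was 48 h saturated at 24 °C, then 6 days at 20 °C; visual rating 0–100% disease control versus controls.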

Botrytis cinerea = test: Test A: preventive spray on tomato seedlings, visual disease rating (tomato Botrytis); conditions: for Test A rating (% disease control): no asterisk: standard test suspension, not 40 ppm, 100 = 100% disease control, 0 = none
Summary of the method: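 Tomato seedlings sprayed to run-off with 200 ppm suspension (800 g/ha; asterisk marks 40 ppm), inoculated next day with Botrytis cinerea spores, held 48 h saturated at 20 °C then 3 days at 24 °C. Visual rating: 100 = full disease control, 0 = none, relative to controls.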

Alternaria solani = test: Test B: preventive spray on tomato seedlings, visual disease rating (tomato early blight)
Source text: as §1
The test suspension was sprayed to the point of run-off on tomato seedlings. The following day the seedlings were inoculated with a spore suspension of Alternaria solani (the causal agent of tomato early blight) and incubated in a saturated atmosphere at 27° C. for 48 h, and then moved to a growth chamber at 20° C. for 5 days, after which time visual disease ratings were made.
as §2

[3] = system: Puccinia recondite f. sp. tritici; test: Test E2: preventive spray on wheat seedlings, visual disease rating (wheat leaf rust); conditions: for Test E2 rating (% disease control): no asterisk: standard test suspension, not 40 ppm
Summary of the method: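 Test suspension (acetone 3% of volume, acetone/water 50/50, 250 ppm Trem 014), 200 ppm unless starred (40 ppm), sprayed to run-off on wheat seedlings; inoculated next day with P. recondita spores. 24 h saturated atmosphere at 20 °C, then 7 days at 20 °C; visual rating, 100 = full control vs untreated.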

[4] = no asterisk: standard test suspension, not 40 ppm
[5] = asterisk: 40 ppm test suspension

Compound	Test D rating (% disease control) (Septoria tritici; [4])	Test E1 rating (% disease control) [1, 4]	Test F rating (% disease control) [2]	Test C rating (% disease control) (Septoria nodorum)	Test A rating (% disease control) (Botrytis cinerea)	Test B rating (% disease control) (Alternaria solani; [4])	Test E2 rating (% disease control) [3]	pest or weed control at 40 ppm (Septoria tritici; Zymoseptoria tritici, 504 h, asterisk: 40 ppm test suspension)	pest or weed control at 40 ppm ([1]; 144 h, asterisk: 40 ppm test suspension)	pest or weed control at 40 ppm ([2]; Blumeria graminis, 192 h, asterisk: 40 ppm test suspension)	pest or weed control at 40 ppm (Septoria nodorum; Parastagonospora nodorum, 192 h, asterisk: 40 ppm test suspension)	pest or weed control at 40 ppm (Botrytis cinerea; Botrytis cinerea, 120 h, asterisk: 40 ppm test suspension)	pest or weed control at 40 ppm (Alternaria solani; Alternaria solani, 168 h, asterisk: 40 ppm test suspension)	pest or weed control at 40 ppm ([3]; 192 h, asterisk: 40 ppm test suspension)	Test D rating (% disease control) (Septoria tritici; [5])	Test E1 rating (% disease control) [1, 5]	Test B rating (% disease control) (Alternaria solani; [5])
Cn1nc(C#N)c(C(=O)c2ccc(F)cc2Cl)c1-c1c(F)cccc1F [Compound 52, 4-(2-chloro-4-fluorobenzoyl)-5-(2,6-difluorophenyl)-1-methyl-1H-pyrazole-3-carbonitrile]	100%	98%	100%	99%	100%	100%	100%										
Cc1nn(C)c(-c2c(F)cccc2F)c1C(O)c1ccc(F)cc1Br (stereo not drawn) [compound 21]	100%	100%	98%	100%	99%	100%	100%										
Cc1nn(C)c(-c2c(Cl)cccc2Cl)c1C(O)c1ccc(F)cc1Cl (stereo not drawn) [compound 69]	100%	0%	97%	96%	99%	100%	99%										
Cc1nn(C)c(-c2ccc(F)cc2Cl)c1C(O)c1ccc(C#N)cc1F (stereo not drawn) [compound 25]	100%	9%	96%	89%	100%	99%	100%										
Cc1nn(C)c(-c2ccc(F)cc2Cl)c1C(O)c1ccc(F)cc1Br (stereo not drawn) [compound 23]	100%	98%	84%	87%	100%	67%	100%										
Cc1nn(C)c(-c2ccc(F)cc2Cl)c1C(O)c1c(F)cc(F)cc1F (stereo not drawn) [compound 19]	100%	100%	100%	100%	99%	100%	100%										
Cn1nc(C#N)c(C(O)c2ccc(F)cc2Cl)c1-c1c(F)cccc1F (stereo not drawn) [Compound 53, 4-[(2-chloro-4-fluorophenyl)hydroxymethyl]-5-(2,6-difluorophenyl)-1-methyl-1H-pyrazole-3-carbonitrile]								100%	0%	43%	0%	93%	99%	93%			
4-[(4-chlorophenyl)thio]-5-(2,6-difluorophenyl)-1,3-dimethyl-1H-pyrazole [Compound 56]	100%	0%	100%	0%	100%	59%	99%										
Cc1nn(C)c(-c2c(F)cccc2F)c1Nc1ccc(Cl)cc1Cl [compound 65]	100%	9%	100%	0%	100%	0%	89%										
Cc1nn(C)c(-c2c(F)cccc2Cl)c1C(O)c1c(Cl)cc(Cl)cc1Cl (stereo not drawn) [compound 55]	100%	99%	95%	78%	99%	97%	100%										
5-(2,6-difluorophenyl)-α-(4-fluoro-2-methylphenyl)-3-methoxy-1-methyl-1H-pyrazole-4-methanol [Compound 157]	100%	65%	98%	0%	100%	93%	89%										
Cc1nn(C)c(-c2c(F)cc(F)cc2F)c1C(=O)c1ccc(F)cc1F [compound 60]	0%	0%	99%	0%	75%	0%	55%										
Cc1nn(C)c(-c2c(F)cccc2F)c1C(O)c1ccc(F)cc1Cl (single isomer, unassigned) [compound 87]			99%	100%	100%		99%								99* %	0* %	0* %
Cc1nn(C)c(-c2ccccc2Br)c1C(=O)c1ccc(F)cc1Cl [compound 78]	0%	0%	99%	40%	0%	31%	79%										
Cc1nn(C)c(-c2c(F)cc(F)cc2F)c1C(O)c1ccc(F)cc1Cl (stereo not drawn) [compound 61]	100%	99%	100%	99%	100%	100%	100%										
